# According to US6951882B2, “Substituted 4-phenyl-[1,3]-dioxanes” (Janssen Pharmaceutica N.V., priority 2002, dated 2005):
# Target: T1, orexin-2 receptor (Homo sapiens, UniProt O43614)
# T1 construct: expressed in transfected cells; host or cells: CHO-K1 (preferred) or HEK-293 recombinant clones
# T1 sequence (O43614 1-444): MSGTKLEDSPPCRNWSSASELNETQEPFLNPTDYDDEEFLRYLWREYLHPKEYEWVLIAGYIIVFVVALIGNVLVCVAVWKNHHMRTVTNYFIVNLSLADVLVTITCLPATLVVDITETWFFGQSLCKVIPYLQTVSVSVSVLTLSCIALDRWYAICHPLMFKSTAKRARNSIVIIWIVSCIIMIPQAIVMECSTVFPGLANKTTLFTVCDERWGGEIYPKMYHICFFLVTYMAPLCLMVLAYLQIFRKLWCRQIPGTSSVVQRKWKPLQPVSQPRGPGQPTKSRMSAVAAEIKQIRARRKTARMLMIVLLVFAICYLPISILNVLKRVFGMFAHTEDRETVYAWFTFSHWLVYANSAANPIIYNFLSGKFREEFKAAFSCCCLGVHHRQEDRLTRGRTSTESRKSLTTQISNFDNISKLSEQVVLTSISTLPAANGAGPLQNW
# Assay: Orexin radioligand binding assay (125I-orexin A, adherent recombinant cells)
# Conditions: 125I-orexin A displacement, recombinant CHO-K1 or HEK-293 cells expressing the orexin receptor
# Experimental: The reaction was quenched with 100 μL of 10% w/v bovine serum albumin, then the products were pre-purified using Waters Maxi-Clean C18 cartridges (Alltech, San Jose, Calif.). The mobile phase for the reverse phase separations (pre-purification and gradient HPLC) was 0.1% TFA, and the eluent was 0.1% TFA in acetonitrile. After removing the acetonitrile from the Maxi-Clean cartridge eluent by lyophilization, the labeled compound was further purified by gradient HPLC using a Vydac (Hesperia, Calif.) analytical C18 HPLC column. A gradient of 2% acetonitrile/min was used and fractions were collected every 0.75 min at a flow rate of 1.5 mL/min.
# Radioligand binding assays were performed in opaque, white 96-well tissue culture plates pretreated with poly-D-lysine (Bio-Coat plates, Becton Dickinson, Franklin Lakes, N.J.). Cells expressing the orexin receptor were seeded at 30,000 cells/well in 100 μL/well Ham's F12 with 10% heat inactivated fetal bovine serum, penicillin/streptomycin and 800 mg/L G418. […] In preparation for the binding assay, the cell culture medium was aspirated away, and the cells were gently washed with 100 μL-well binding buffer (Dulbecco's phosphate buffered saline containing 0.1% w/v bovine serum albumin). […] The assay was terminated by aspirating the liquid from the wells, washing the wells with iced binding buffer, aspirating the wells dry, adding 50 μL/well scintillation cocktail (MicroScint 40, Packard Biosciences, Meriden Conn.), and counting the plate(s) in a Packard TopCount scintillation counter. […] Data were analyzed using GraphPad Prizm software to calculate Ki values.
row,Ki [nM],Structure (SMILES)
1,64,"Cc1ccc(C)c(NC(=O)N[C@H]2COC(C)(C)O[C@H]2c2ccccc2)c1 [Example 11, 1-(2,5-Dimethyl-phenyl)-3-((4S,5S)-2,2-dimethyl-4-phenyl-[1,3]dioxan-5-yl)-urea]"
2,63,"CC1(C)OC[C@H](NC(=O)Nc2ccccc2-c2cccc(Cl)c2)[C@H](c2ccccc2)O1 [Example 14, 1-(3′-Chloro-biphenyl-2-yl)-3-((4S,5S)-2,2-dimethyl-4-phenyl-[1,3]dioxan-5-yl)-urea]"
3,100,"CC1(C)OC[C@H](NC(=O)Nc2ccccc2-c2ccsc2)[C@H](c2ccccc2)O1 [Example 15, 1-((4S,5S)-2,2-Dimethyl-4-phenyl-[1,3]dioxan-5-yl)-3-(2-thiophen-3-yl-phenyl)-urea]"
4,56,"CC1(C)OC[C@H](NC(=O)Nc2ccccc2-c2ccccc2)[C@H](c2ccccc2)O1 [Example 16, 1-Biphenyl-2-yl-3-((4S,5S)-2,2-dimethyl-4-phenyl-[1,3]dioxan-5-yl)-urea]"
5,60,"CC1(C)OC[C@H](NC(=O)Nc2ccccc2C#N)[C@H](c2ccccc2)O1 [Example 20, 1-(2-Cyano-phenyl)-3-((4S,5S)-2,2-dimethyl-4-phenyl-[1,3]dioxan-5-yl)-urea]"
6,210,"CC1(C)OC[C@H](NC(=O)Nc2ccccc2Oc2ccccc2)[C@H](c2ccccc2)O1 [Example 21, 1-((4S,5S)-2,2-Dimethyl-4-phenyl-[1,3]dioxan-5-yl)-3-(2-phenoxy-phenyl)-urea]"
7,980,"O=C(Nc1ccccc1Br)N[C@H]1COC2(CCCCC2)O[C@H]1c1ccccc1 [Example 26, 1-(2-Bromo-phenyl)-3-((2S,3S)-2-phenyl-1,5-dioxa-spiro[5.5]undec-3-yl)-urea]"
8,2600,"CC1(c2ccccc2)OC[C@H](NC(=O)Nc2ccccc2Br)[C@H](c2ccccc2)O1 (stereo partly drawn) [Example 28, 1-(2-Bromo-phenyl)-3-((4S,5S)-2-methyl-2,4-diphenyl-[1,3]dioxan-5-yl)-urea]"
9,580,"CC1(C)OC[C@H](NC(=O)Nc2ccccc2[N+](=O)[O-])[C@H](c2ccccc2)O1 [Example 33, 1-((4S,5S)-2,2-Dimethyl-4-phenyl-[1,3]dioxan-5-yl)-3-(2-nitro-phenyl)-urea]"
10,300,"CC1(C)OC[C@H](NC(=O)Nc2ccc(Cl)cc2)[C@H](c2ccccc2)O1 [Example 39, 1-(4-Chloro-phenyl)-3-((4S,5S)-2,2-dimethyl-4-phenyl-[1,3]dioxan-5-yl)-urea]"
11,1200,"COC(=O)c1ccccc1NC(=O)N[C@H]1COC(C)(C)O[C@H]1c1ccccc1 [Example 40, 2-[3-((4S,5S)-2,2-Dimethyl-4-phenyl-[1,3]dioxan-5-yl)-ureido]-benzoic acid methyl ester]"
12,710,"CC1(C)OC[C@H](NC(=O)Nc2ccccc2C(=O)O)[C@H](c2ccccc2)O1 [Example 41, 2-[3-((4S,5S)-2,2-Dimethyl-4-phenyl-[1,3]dioxan-5-yl)-ureido]-benzoic acid]"

# More lines, now with the values behind:
row,Structure (SMILES),Ki [nM]
1,"Cc1cc(Br)ccc1NC(=O)N[C@H]1COC(C)(C)O[C@H]1c1ccccc1 [Example 2, 1-(4-Bromo-2-methyl-phenyl)-3-((4S,5S)-2,2-dimethyl-4-phenyl-[1,3]dioxan-5-yl)-urea]",50
2,"Cc1ccc(Cl)c(NC(=O)N[C@H]2COC(C)(C)O[C@H]2c2ccccc2)c1 [Example 3, 1-(2-Chloro-5-methyl-phenyl)-3-((4S,5S)-2,2-dimethyl-4-phenyl-[1,3]dioxan-5-yl)-urea]",27
3,"CC1(C)OC[C@H](NC(=O)Nc2ccccc2I)[C@H](c2ccccc2)O1 [Example 6, 1-((4S,5S)-2,2-Dimethyl-4-phenyl-[1,3]dioxan-5-yl)-3-(2-iodo-phenyl)-urea]",70
4,"CC1(C)OC[C@H](NC(=O)Nc2ccc(I)cc2)[C@H](c2ccccc2)O1 [Example 7, 1-((4S,5S)-2,2-Dimethyl-4-phenyl-[1,3]dioxan-5-yl)-3-(4-iodo-phenyl)-urea]",45
5,"CC1(C)OC[C@H](NC(=O)Nc2ccccc2C(F)(F)F)[C@H](c2ccccc2)O1 [Example 8, 1-((4S,5S)-2,2-Dimethyl-4-phenyl-[1,3]dioxan-5-yl)-3-(2-trifluoromethyl-phenyl)-urea]",76
6,"Cc1cc(NC(=O)N[C@H]2COC(C)(C)O[C@H]2c2ccccc2)ccc1Br [Example 9, 1-(4-Bromo-3-methyl-phenyl)-3-((4S,5S)-2,2-dimethyl-4-phenyl-[1,3]dioxan-5-yl)-urea]",87
7,"CC1(C)OC[C@H](NC(=O)Nc2cc(Cl)ccc2Cl)[C@H](c2ccccc2)O1 [Example 10, 1-(2,5-Dichloro-phenyl)-3-((4S,5S)-2,2-dimethyl-4-phenyl-[1,3]dioxan-5-yl)-urea]",98
8,"CC1(C)OC[C@H](NC(=O)Nc2ccccc2-c2cccs2)[C@H](c2ccccc2)O1 [Example 13, 1-((4S,5S)-2,2-Dimethyl-4-phenyl-[1,3]dioxan-5-yl)-3-(2-thiophen-2-yl-phenyl)-urea]",34
9,"CC1(C)OC[C@H](NC(=O)Nc2cc(C(F)(F)F)ccc2Cl)[C@H](c2ccccc2)O1 [Example 17, 1-(2-Chloro-5-trifluoromethyl-phenyl)-3-((4S,5S)-2,2-dimethyl-4-phenyl-[1,3]dioxan-5-yl)-urea]",120
10,"CC1(C)OC[C@H](/N=C(\S)Nc2ccc(Cl)cc2Cl)[C@H](c2ccccc2)O1 [Example 22, 1-(2,4-Dichloro-phenyl)-3-((4S,5S)-2,2-dimethyl-4-phenyl-[1,3]dioxan-5-yl)-thiourea]",280
11,"CC1(C)OC[C@H](NC(=O)Nc2ccccc2-c2cccnc2)[C@H](c2ccccc2)O1 [Example 23, 1-((4S,5S)-2,2-Dimethyl-4-phenyl-[1,3]dioxan-5-yl)-3-(2-pyridin-3-yl-phenyl)-urea]",320
12,"CC1(C)OC[C@H](/N=C(\S)Nc2ccccc2Br)[C@H](c2ccccc2)O1 [Example 24, 1-(2-Bromo-phenyl)-3-((4S,5S)-2,2-dimethyl-4-phenyl-[1,3]dioxan-5-yl)-thiourea]",540
13,"O=C(Nc1ccc(Br)cc1Br)N[C@H]1COC2(CCCCC2)O[C@H]1c1ccccc1 [Example 25, 1-(2,4-Dibromo-phenyl)-3-((2S,3S)-2-phenyl-1,5-dioxa-spiro[5.5]undec-3-yl)-urea]",700
14,"Cc1ccc(/N=C(\NC#N)N[C@H]2COC(C)(C)O[C@H]2c2ccccc2)c(Br)c1 [Example 27, N-(2-Bromo-4-methyl-phenyl)-N′-((4S,5S)-2,2-dimethyl-4-phenyl-[1,3]dioxan-5-yl)-N″-cyanoguanidine]",1000
15,"Cc1ccc(NC(=O)N[C@H]2COC(C)(C)O[C@H]2c2ccccc2)c(C)c1 [Example 29, 1-(2,4-Dimethyl-phenyl)-3-((4S,5S)-2,2-dimethyl-4-phenyl-[1,3]dioxan-5-yl)-urea]",200
16,"CC1(C)OC[C@H](NC(=O)Nc2ccccc2Cl)[C@H](c2ccccc2)O1 [Example 30, 1-(2-Chloro-phenyl)-3-((4S,5S)-2,2-dimethyl-4-phenyl-[1,3]dioxan-5-yl)-urea]",300
17,"CC1(C)OC[C@H](NC(=O)Nc2ccccc2F)[C@H](c2ccccc2)O1 [Example 31, 1-((4S,5S)-2,2-Dimethyl-4-phenyl-[1,3]dioxan-5-yl)-3-(2-fluoro-phenyl)-urea]",1550
18,"Cc1ccccc1NC(=O)N[C@H]1COC(C)(C)O[C@H]1c1ccccc1 [Example 32, 1-((4S,5S)-2,2-Dimethyl-4-phenyl-[1,3]dioxan-5-yl)-3-o-tolyl-urea]",650
19,"CC1(C)OC[C@H](NC(=O)Cc2ccccc2Br)[C@H](c2ccccc2)O1 [Example 34, 2-(2-Bromo-phenyl)-N-((4S,5S)-2,2-dimethyl-4-phenyl-[1,3]dioxan-5-yl)-acetamide]",2200
20,"CC1(C)OC[C@H](NC(=O)Oc2ccccc2Cl)[C@H](c2ccccc2)O1 [Example 35, ((4S,5S)-2,2-Dimethyl-4-phenyl-[1,3]dioxan-5-yl)-carbamic acid 2-chloro-phenyl ester]",2600
21,"CC1(C)OC[C@H](NC(=O)Nc2ccc(Br)cc2)[C@H](c2ccccc2)O1 [Example 36, 1-(4-Bromo-phenyl)-3-((4S,5S)-2,2-dimethyl-4-phenyl-[1,3]dioxan-5-yl)-urea]",1400
22,"COc1ccccc1NC(=O)N[C@H]1COC(C)(C)O[C@H]1c1ccccc1 [Example 37, 1-((4S,5S)-2,2-Dimethyl-4-phenyl-[1,3]dioxan-5-yl)-3-(2-methoxy-phenyl)-urea]",6000
23,"CC1(C)OC[C@H](NC(=O)Nc2ccc(-c3cccnc3)cc2)[C@H](c2ccccc2)O1 [Example 38, 1-((4S,5S)-2,2-Dimethyl-4-phenyl-[1,3]dioxan-5-yl)-3-(4-pyridin-3-yl-phenyl)-urea]",320
